According to patent publication US10722637B2, “Cartridge and method for increasing myocardial function” (SeaStar Medical, Inc., priority 2012, dated 2020):

Columns and labels:
[1] = test system: leukocytes in human whole blood; assay: In vitro whole blood assay of leukocyte activation; assay type: cell-based; settings: for CD11b: n = 3; for Lactoferrin: n = 4; for Elastase: n = 5
Experimental: Heparinized human whole blood was added to tubes with or without lipopolysaccharide (LPS) (10 μg/mL) or formyl-Methionyl-Leucyl-Phenylalanine (fMLF, 50 nM). […] The release of IL-6, IL-8, or IL-10 was measured using commercially available ELISA kits from R&D Systems. The release of elastase was measured using a commercially available ELISA kit from Bender MedSystems. The release of lactoferrin was measured using a commercially available ELISA kit from EMD Chemicals. […] Samples were incubated for various times at 37° C. and 5% CO2. CD11b activation was measured using an FITC-conjugated mouse anti-human antibody (AbD Serotech) and evaluated on an Accuri C6 flow cytometer.

[2] = test system: leukocytes in porcine blood; assay: Microscopic flow chamber: leukocyte interaction with polysulfone membrane; assay type: cell-based
Text: A custom microscopic flow chamber system was set up to enable microscopic analysis of leukocyte interaction with the SCD membrane. The flow chamber consisted of a polycarbonate housing with an inlet and outlet for perfusion. A polysulfone membrane was affixed to the polycarbonate block with a gasket which directed shear flow. The thickness of the gasket (100 μm) along with the length (2 cm) and the width of the channel (1.5 mm) determined the volume of the flow chamber. Microscopic imaging was accomplished through an optical window made up of a cover glass affixed to the bottom of the polycarbonate block. Either isolated blood or purified leukocytes were used for this study.
Isolated blood was prone to activation from excessive handling. […] Blood passed through the flow chamber at a rate of 20 μL/min with calculated shear forces between 1-10 dynes/cm^2. […]
Microscopic analysis of cell capture events was accomplished using either a Zeiss Axiovert 200M or Axio-Observer epifluorescence microscope equipped with a microscope stage-top incubator to control environmental temperature and CO2 content. Fluorescence images were acquired with either a Zeiss MRm3 or an Icc1 camera at a frequency of 1 frame/second for 5 minutes, for analysis of leukocyte/membrane interaction, and at 1 frame/minute for 1 hour sequences, for analysis of long term leukocyte attachment. […]

## O=C(O)CC(O)(CC(=O)O)C(=O)O [Citrate]
[1]; Baseline
  CD11b: 7.32 ± 0.47 MFI × 10^3
  Lactoferrin: 1.67 ± 0.29 mg/mL
  Elastase: 0.94 ± 0.14 mg/mL
[1]; Stimulated (LPS, fMLF)
  CD11b: 28.72 ± 2.95 MFI × 10^3
  Lactoferrin: 3.43 ± 0.18 mg/mL
  Elastase: 0.91 ± 0.28 mg/mL
[1]; citrate treated samples (1.25 mM nontreated)
  iCa levels: < 0.25 mM
[2]; LPS activated, low ionized calcium flow chambers
  leukocyte attachment to polysulfone membranes during shear flow: statistically significant decrease
[2]; after addition of citrate (from 1.32±0.05)
  blood iCa level: 0.32 ± 0.05 mmol/L
